Data set [1] relates to Leishmania tarentolae promastigotes (LtP). The data set can be described thus: Oxygen consumption of LtP, Clark-type electrode (immediate effect). In kind it is cell-based. Particulars: 10-200 μM tested. The procedure: Direct inhibitors of mitochondrial ETC instantaneously influence mitochondrial oxygen consumption. To assay the effect of EO compounds on oxygen consumption of LtP, a Clark‐type oxygen electrode (Hansatech, Germany) and software MCREC were used. LtP at approximately 10^8 cells/ml in YEM (25 °C) were added and treated with increasing concentrations of EO compounds between 10 and 200 μM and for EO 5.6–89.6 μg/ml. Each concentration was assayed in quadruplicates, and the results were expressed as percentage of oxygen consumption in comparison with the untreated control LtP. The highest concentration of the vehicle (1% DMSO) caused only 2% inhibition. The uncoupling effect in short‐term and long‐term (0, 6, and 24 hr) incubations with Asc (200 μM) was studied in Oligo‐inhibited (5 μM) and uncoupler‐stimulated (0.5 μM CCCP) LtP in Schneider's medium supplemented with 6 μM hemin. Four replicates were performed for each concentration.

Data set [2] has as its target NADH:ubiquinone oxidoreductase (complex I), LtP‐Mit (Leishmania tarentolae, UniProt A0A640KJ43+P15576+Q34939). The data set can be described thus: NADH:ubiquinone oxidoreductase (complex I) activity in LtP‐Mit, DCPIP. In kind it is biochemical. The settings on record: for IC50: read-out: IC50 Complex I LtP‐Mit. The procedure: (§1) NADH:ubiquinone oxidoreductase (complex I) and succinate:ubiquinone oxidoreductase (complex II) activities were determined in 96 well‐plates using DCPIP as the electron acceptor. In each well, 200 μl of premix containing buffer (250 mM sucrose, 20 mM triethanolamine, and 1 mM EDTA, pH 7.4), DCPIP (60 μM), BSA (3.5 mg/ml for complex I and 1 mg/ml for complex II), idebenone (50 μM), and LtP‐Mit (complex I 0.17 μg/ml protein and complex II: 51 μg/ml protein) or BH‐SMP (complexes I and II: 8 μg/ml protein) were added. In addition, in the first wells, 97 μl of premix and 3 μl of EO compounds were added. Then six serial 1:3 dilutions were carried out transferring 100 μl in each step. The reaction was started by adding 50 μl of start‐mix per well, giving final concentrations of KCN (1 mM), for complex I:NADH (300 μM) or complex II:succinate (4 mM). After start of the reaction, images of the plates were recorded with a Canon EOS 300D camera (PLReader software, red–green channel) each 10 min for LtP‐Mit and 3 min for BH‐SMP (20 absorbance measurements). For each EO compound, percentage of inhibition was obtained with respect to controls (set to 100%) treated with maximum volume of vehicle (DMSO) introduced by test compound stocks.

Data set [3] deals with succinate:ubiquinone oxidoreductase (complex II), LtP‐Mit (Leishmania tarentolae, UniProt A0A640KIH4+A0A640KIH8). The data set can be described thus: Succinate:ubiquinone oxidoreductase (complex II) activity in LtP‐Mit, DCPIP. In kind it is biochemical. Particulars: for IC50: read-out: IC50 Complex II LtP‐Mit. Here is the method: as §1
In data set [4] the test system is Leishmania tarentolae promastigotes (LtP). The data set can be described thus: Superoxide radical detection in LtP by CMH/ESR. Particulars: for CM● formation (superoxide radicals) in LtP: 100 μM compound, immediate, with DFO and DTPA. Type of data set: cell-based. The procedure: Detection of superoxide radicals was performed using CMH as reaction partner and measuring the formed stable nitroxyl radicals by electron spin resonance (ESR) spectroscopy. Measurements were performed in PBS (136 mM NaCl, 1.15 mM KH2PO4, 14 mM Na2HPO4, and 2.7 mM KCl, pH 7.4) containing 15 mM glucose, 400 μM CMH, and 100 μM DFO (desferrioxamine mesylate) and 25 μM DTPA. Usually, these assays are performed in the presence of iron chelators (DFO and DTPA) to prevent CMH interaction with free Fe^3+ leading to CM^● unrelated to superoxide radicals. Before the measurements, LtP suspensions were washed twice with PBS to remove the medium. Typical experiments contained 5 × 10^8 LtP cells/ml. Stock solutions of EO compounds dissolved in DMSO were added. The influence of Asc (6–700 μM) on the CMH oxidation rate by LtP was assessed immediately and after prolonged incubation time (1 hr between Asc and CMH addition). The influence of iron‐dependent Asc activation in LtP on CMH oxidation was studied in the absence of iron chelators DFO and DTPA. Prior to the ESR measurement, 400 μM CMH was added. Afterwards, 17 μl of suspension was aspirated in gas‐permeable Teflon tubes (ID 0.7 mm). This capillary tube was placed in the resonator of the ESR instrument (Bruker EMX, split ring MD5, Germany), and 10 sequential measurements were performed. The following instrument settings were used: microwave frequency 9.682 GHz, modulation frequency 100 kHz, modulation amplitude 1 G, time constant 0.082 s, center field 3,446 G, scan rate 71 G/min, sweep width 100 G, scan time 84 s, and attenuation CMH: 7.96 × 10^3. From the ESR spectra, the middle peak intensity was retrieved, and concentrations of oxidized CMH were obtained by comparison with a standard curve prepared from 3‐carboxy‐proxyl solutions with defined concentrations. Four replicate measurements were performed for each condition.

Data set [5] has the same test system. Briefly: Immediate mitochondrial uncoupling in LtP, OxoPlates with oligomycin. In kind it is cell-based. The settings on record: LtP + 5 μM Oligo, OxoPlates. Here is the method: U‐shaped 96‐well OxoPlates (OP96U PreSens, Germany) with integrated fluorescence oxygen sensors were used for parallel LtP experiments. Oxygen concentrations were measured using a PerkinElmer Enspire fluorescence plate reader using excitation wavelength 540 nm and two emission wavelengths (reference dye 590 nm, IRef, and O2‐sensing dye 650 nm, IInd). The oxygen concentration (μM O2) was calculated according to manufacturer's instructions as described previously (Monzote et al., 2016). Measurements with LtP were performed in air‐saturated BHI medium. […] Immediately before the measurement, 150 μl of well‐aerated cell suspensions (13 × 10^7 LtP per ml) was added to the respective wells. Finally, on the top of each well, 50 μl of paraffin oil was layered. Two minutes after mixing, the fluorescence measurements at 27 °C were started, and eight measurements at 5‐min intervals were performed. From the linear part of the O2 decay, the slopes were calculated and corrected for the medium drift for further statistic evaluation. All measurements were performed at least in triplicate. For bioenergetic characterization, the ATP synthase inhibitor Oligo (5 μM) and as positive control CCCP (0.7–5 μM) were used. Respiratory control ratio (RCR) was calculated from respiration rate in the presence of Oligo and compounds/uncoupler divided by the rate in the presence of Oligo.

Data set [6] relates to Leishmania amazonensis promastigotes (LaP). Also on record: method as in Monzote, Garcia, et al., 2014. The settings on record: after 72 hr of incubation; ref Monzote, Garcia, et al., 2014; cited from earlier work.
Details of data set [7]: method as in Rappoport & Frankel, 1967. Particulars: ref Rappoport & Frankel, 1967; cited from earlier work.

Chain of NADH:ubiquinone oxidoreductase (complex I), LtP‐Mit (Q7M3U1 entry or part of it): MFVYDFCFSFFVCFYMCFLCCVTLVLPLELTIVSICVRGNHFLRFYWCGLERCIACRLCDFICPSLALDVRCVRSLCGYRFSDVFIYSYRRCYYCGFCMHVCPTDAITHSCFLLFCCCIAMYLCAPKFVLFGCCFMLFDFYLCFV
Chain of NADH:ubiquinone oxidoreductase (complex I), LtP‐Mit (P15576 whole entry): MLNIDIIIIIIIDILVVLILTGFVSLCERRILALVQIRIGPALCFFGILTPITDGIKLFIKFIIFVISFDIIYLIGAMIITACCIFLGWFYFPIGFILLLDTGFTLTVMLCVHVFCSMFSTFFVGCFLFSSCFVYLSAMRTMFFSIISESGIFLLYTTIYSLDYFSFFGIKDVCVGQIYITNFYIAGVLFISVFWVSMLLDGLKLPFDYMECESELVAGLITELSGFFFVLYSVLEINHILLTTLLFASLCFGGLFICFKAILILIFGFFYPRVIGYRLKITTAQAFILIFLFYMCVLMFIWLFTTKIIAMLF
Chain of NADH:ubiquinone oxidoreductase (complex I), LtP‐Mit (A0A640K8W3 entry or part of it, further chain): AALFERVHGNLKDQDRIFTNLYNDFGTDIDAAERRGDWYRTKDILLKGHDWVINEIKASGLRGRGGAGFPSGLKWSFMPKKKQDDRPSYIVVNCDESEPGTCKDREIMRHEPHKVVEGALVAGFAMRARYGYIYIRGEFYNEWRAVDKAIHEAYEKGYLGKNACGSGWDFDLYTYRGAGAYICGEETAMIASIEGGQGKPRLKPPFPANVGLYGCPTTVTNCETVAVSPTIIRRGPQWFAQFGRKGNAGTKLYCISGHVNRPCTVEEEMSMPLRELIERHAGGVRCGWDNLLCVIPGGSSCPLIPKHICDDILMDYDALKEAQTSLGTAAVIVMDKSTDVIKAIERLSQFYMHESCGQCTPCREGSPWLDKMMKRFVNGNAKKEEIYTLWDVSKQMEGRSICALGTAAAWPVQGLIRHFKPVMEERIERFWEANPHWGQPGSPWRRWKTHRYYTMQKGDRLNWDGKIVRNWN
Chain of NADH:ubiquinone oxidoreductase (complex I), LtP‐Mit (P15583 whole entry, further chain): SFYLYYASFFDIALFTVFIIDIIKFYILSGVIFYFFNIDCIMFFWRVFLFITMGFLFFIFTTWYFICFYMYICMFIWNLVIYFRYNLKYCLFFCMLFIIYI
Chain of NADH:ubiquinone oxidoreductase (complex I), LtP‐Mit (Q34939 entry or part of it): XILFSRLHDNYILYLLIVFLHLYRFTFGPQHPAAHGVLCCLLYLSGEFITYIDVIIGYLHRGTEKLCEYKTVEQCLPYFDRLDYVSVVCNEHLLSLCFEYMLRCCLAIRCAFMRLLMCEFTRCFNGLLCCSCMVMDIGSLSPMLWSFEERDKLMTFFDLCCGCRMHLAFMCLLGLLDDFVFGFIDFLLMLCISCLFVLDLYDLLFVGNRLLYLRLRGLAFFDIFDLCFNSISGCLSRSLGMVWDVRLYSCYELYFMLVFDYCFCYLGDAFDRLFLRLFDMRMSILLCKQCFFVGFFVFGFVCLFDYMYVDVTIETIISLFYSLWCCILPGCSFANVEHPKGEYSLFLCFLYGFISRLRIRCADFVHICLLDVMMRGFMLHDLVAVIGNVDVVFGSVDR
Chain of NADH:ubiquinone oxidoreductase (complex I), LtP‐Mit (A0A640KJ43 entry or part of it): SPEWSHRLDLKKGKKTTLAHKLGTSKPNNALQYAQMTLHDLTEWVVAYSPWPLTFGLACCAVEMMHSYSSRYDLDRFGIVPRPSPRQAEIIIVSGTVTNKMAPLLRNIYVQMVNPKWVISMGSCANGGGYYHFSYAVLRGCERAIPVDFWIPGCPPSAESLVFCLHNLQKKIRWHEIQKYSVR
Chain of succinate:ubiquinone oxidoreductase (complex II), LtP‐Mit (A0A640KIH4 entry or part of it): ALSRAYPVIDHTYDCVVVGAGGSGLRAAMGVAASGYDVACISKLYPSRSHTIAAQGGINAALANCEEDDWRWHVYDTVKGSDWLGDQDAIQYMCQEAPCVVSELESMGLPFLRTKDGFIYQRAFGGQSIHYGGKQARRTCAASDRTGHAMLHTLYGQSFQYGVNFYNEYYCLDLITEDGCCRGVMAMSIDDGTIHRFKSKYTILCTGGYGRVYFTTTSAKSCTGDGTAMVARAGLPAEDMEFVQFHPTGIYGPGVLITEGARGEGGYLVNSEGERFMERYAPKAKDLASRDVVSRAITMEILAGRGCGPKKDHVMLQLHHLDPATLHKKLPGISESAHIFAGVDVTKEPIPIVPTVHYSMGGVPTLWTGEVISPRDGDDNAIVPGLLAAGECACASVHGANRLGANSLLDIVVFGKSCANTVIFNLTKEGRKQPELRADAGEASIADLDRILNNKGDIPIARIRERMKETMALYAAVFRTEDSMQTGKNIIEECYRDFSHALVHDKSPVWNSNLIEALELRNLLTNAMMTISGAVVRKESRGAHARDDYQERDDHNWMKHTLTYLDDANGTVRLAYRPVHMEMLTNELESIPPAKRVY
Chain of succinate:ubiquinone oxidoreductase (complex II), LtP‐Mit (A0A640KIH8 entry or part of it): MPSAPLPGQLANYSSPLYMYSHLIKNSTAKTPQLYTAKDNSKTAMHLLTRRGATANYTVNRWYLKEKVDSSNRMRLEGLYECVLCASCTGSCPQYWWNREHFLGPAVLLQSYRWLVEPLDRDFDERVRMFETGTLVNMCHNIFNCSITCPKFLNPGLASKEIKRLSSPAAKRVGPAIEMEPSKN

For the compound `CC(C)C12C=CC(C)(CC1)OO2` (stereo not drawn) [Asc, ascaridole], the “Inhibition of LtP oxygen consumption (in words)” value (shortened to “Inhibition … (in words)”) in data set [1] is given as “failed to strongly inhibit oxygen consumption”. Moreover, in data set [2], the “% of inhibition at highest concentration tested, Complex I LtP‐Mit” value (“% of inhibition … Complex I LtP‐Mit” for short) is listed as 1.1% and the IC50 (commonly the concentration that inhibits the measured activity by half) was more than 100 µM. In data set [3], the “% of inhibition at highest concentration tested, Complex II LtP‐Mit” value (from here on “% of inhibition … Complex II LtP‐Mit”) is listed as 17.6% and the IC50 is more than 100 µM. For the same compound, the “CM● formation (superoxide radicals) in LtP” value in data set [4] was “only slightly increased”. In addition, in data set [4] (Asc 6–700 μM, 0 hr vs 1 hr incubation, with/without iron chelators), the “CMH oxidation (superoxide radical formation) triggered in LtP” value was “increasingly effective upon prolonged incubation and in the absence of iron chelators”. Further, in data set [5], the “Immediate uncoupling effect (stimulation of Oligo-inhibited oxygen consumption)” value is “Neither Car nor Asc (Figure 6a,b) showed an uncoupling effect”. Moreover, the “Membrane potential of LaP (JC‐1)” value in data set [6] was “decrease”.

As for `Cc1ccc(C(C)C)cc1O` [Car, carvacrol], the “Inhibition … (in words)” value in data set [1] was “failed to strongly inhibit oxygen consumption”. Also, in data set [2], the “% of inhibition … Complex I LtP‐Mit” value turned out to be 16.4% and the IC50 was more than 100 µM. In data set [3], the “% of inhibition … Complex II LtP‐Mit” value is 8.8% and the IC50 was more than 100 µM. The “Immediate uncoupling effect (stimulation of Oligo-inhibited oxygen consumption)” value in data set [5] is on record as “Neither Car nor Asc (Figure 6a,b) showed an uncoupling effect”. Further, the pKa value result in data set [7] was “around 10”.

For the compound `C=C1CC[C@H]2O[C@]2(C)CC[C@@H]2[C@@H]1CC2(C)C` [Caryo, caryophyllene oxide], the “Inhibition … (in words)” value in data set [1] was “strongly inhibited LtP oxygen consumption”. In addition, the IC50 in data set [1] (Leishmania tarentolae, read-out: IC50, inhibition of LtP oxygen consumption) came out at 98 ± 2 µM. Moreover, in data set [2], the “% of inhibition … Complex I LtP‐Mit” value is recorded as 7.2% and the IC50 was more than 100 µM. For the same compound, in data set [3], the “% of inhibition … Complex II LtP‐Mit” value is listed as 12.3% and the IC50 was more than 100 µM. Also, in data set [4], the “CM● formation (superoxide radicals) in LtP” value is “only slightly increased”. In data set [5] (highest concentration 200 μM), the “Oxygen consumption on top of the inhibition by Oligo” value is listed as “totally inhibited the oxygen consumption”.
